SMILES strings stand for the structures.

T1 sequence (Q92918 whole entry): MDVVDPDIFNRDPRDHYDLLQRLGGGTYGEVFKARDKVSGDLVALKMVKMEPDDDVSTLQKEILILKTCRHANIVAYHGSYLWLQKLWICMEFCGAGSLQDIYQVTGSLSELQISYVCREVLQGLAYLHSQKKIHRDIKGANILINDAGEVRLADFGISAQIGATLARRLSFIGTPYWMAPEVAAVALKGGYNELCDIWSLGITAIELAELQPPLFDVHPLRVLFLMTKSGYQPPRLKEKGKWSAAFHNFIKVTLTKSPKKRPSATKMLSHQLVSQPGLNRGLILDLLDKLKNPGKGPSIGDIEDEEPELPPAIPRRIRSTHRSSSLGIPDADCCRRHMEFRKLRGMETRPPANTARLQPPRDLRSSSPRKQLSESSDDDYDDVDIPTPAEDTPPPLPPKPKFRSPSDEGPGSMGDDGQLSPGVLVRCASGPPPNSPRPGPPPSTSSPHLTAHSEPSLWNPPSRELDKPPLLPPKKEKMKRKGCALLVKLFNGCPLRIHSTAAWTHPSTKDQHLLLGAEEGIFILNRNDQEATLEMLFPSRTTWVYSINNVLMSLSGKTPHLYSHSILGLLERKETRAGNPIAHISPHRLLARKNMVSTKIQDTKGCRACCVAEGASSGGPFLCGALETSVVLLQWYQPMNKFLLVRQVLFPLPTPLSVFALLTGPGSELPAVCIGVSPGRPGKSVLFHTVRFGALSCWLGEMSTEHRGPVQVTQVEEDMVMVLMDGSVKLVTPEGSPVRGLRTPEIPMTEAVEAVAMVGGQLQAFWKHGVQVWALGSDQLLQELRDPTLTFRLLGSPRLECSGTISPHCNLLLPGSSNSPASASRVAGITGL

This experiment addresses T1, HPK1 (Homo sapiens, UniProt Q92918).
T1 construct: purchased Invitrogen
The experiment can be described thus: HPK1 biochemical enzyme assay (microfluidic mobility shift assay). The settings on record: 1000 uM (1 mM) ATP; Caliper mobility shift; 1.5 nM HPK1; 30 min preincubation; read-out: HPK1 1000UMATP caliper IC50. The method in brief: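 IC50 values, grouped into activity categories, come from 10-point titrations (top final 3 μM) preincubated 30 min with 1.5 nM enzyme and substrate at pH 7.4. ATP (1 mM), substrate (1 μM) and MgCl2 (5 mM) then added; after 60 min at RT, product separated by microfluidic mobility shift.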
As a reminder, the IC50 is the concentration needed to halve the response being measured. For the molecule `O=C(NC1CCCCC1)c1ccc(-c2cc(Nc3ccc(N4CCC(O)CC4)cn3)c3c(=O)[nH]ccc3n2)c(F)c1` [I-139, N-cyclohexyl-3-fluoro-4-[4-[[5-(4-hydroxy-1-piperidyl)-2-pyridyl]amino]-5-oxo-6H-1,6-naphthyridin-2-yl] benzamide], the IC50 was no more than 100 nM.
Under `O=c1[nH]ccc2nccc(Nc3ccc(N4CCC(O)CC4)cn3)c12` [I-44, 4-[[5-(4-hydroxy-1-piperidyl)-2-pyridyl]amino]-6H-1,6-naphthyridin-5-one] stands no more than 100 nM; under `CC(O)c1c[nH]c(=O)c2c(Nc3ccc(N4CCC(O)CC4)cn3)cc(-c3c(F)cccc3F)nc12` (centres unmarked) [I-15, 2-(2,6-difluorophenyl)-8-(1-hydroxyethyl)-4-[[5-(4-hydroxy-1-piperidyl)-2-pyridyl]amino]-6H-1,6-naphthyridin-5-one], 100 to 1000 nM.
Under `CC(C)c1ccc(F)c(-c2cc(Nc3ccc(N4[C@H](C)COC[C@H]4C)cn3)c3c(=O)[nH]ccc3n2)c1` [I-122, 4-[[5-[(3R,5R)-3,5-dimethyl-morpholin-4-yl]-2-pyridyl]amino]-2-(2-fluoro-5-isopropyl-phenyl)-6H-1,6-naphthyridin-5-one] stands 100 to 1000 nM; under `Cc1c[nH]c(=O)c2c(Nc3ccc(N4CCC(O)CC4)cn3)cc(-c3c(F)cccc3F)nc12` [I-25, 2-(2,6-difluorophenyl)-4-[[5-(4-hydroxy-1-piperidyl)-2-pyridyl]amino]-8-methyl-6H-1,6-naphthyridin-5-one], 100 to 1000 nM.
Under `O=c1[nH]ccc2nc(N3CCCC3)cc(Nc3ccc(N4CCC(O)CC4)cn3)c12` [I-84, 4-[[5-(4-hydroxy-1-piperidyl)-2-pyridyl]amino]-2-pyrrolidin-yl-6H-1,6-naphthyridin-5-one] stands 100 to 1000 nM; under `COc1cc(-c2cc(Nc3ccc(N4CCC(O)CC4)cn3)c3c(=O)[nH]ccc3n2)c(F)c(F)c1C(=O)N1CCCCC1` [I-241, 2-[2,3-difluoro-5-methoxy-4-(piperidine-1-carbonyl)phenyl]-4-[[5-(4-hydroxy-1-piperidyl)-2-pyridyl]amino]-6H-1,6-naphthyridin-5-one], 100 to 1000 nM.
For `CC1(c2ccc(F)c(-c3cc(Nc4ccc(N5CCC(O)CC5)cn4)c4c(=O)[nH]ccc4n3)c2)CC1` [I-102, 2-[2-fluoro-5-(1-methylcyclo-propyl)phenyl]-4-[[5-(4-hydroxy-1-piperidyl)-2-pyridyl]amino]-6H-1,6-naphthyridin-5-one], the IC50 is no more than 100 nM.
On to `CN(C(=O)c1ccc(-c2cc(Nc3ccc(N4CCC(O)CC4)cn3)c3c(=O)[nH]ccc3n2)c(F)c1)C1CCCCC1` [I-143, N-cyclohexyl-3-fluoro-4-[4-[[5-(4-hydroxy-1-piperidyl)-2-pyridyl]amino]-5-oxo-6H-1,6-naphthyridin-2-yl]-N-methyl-benzamide], for which the IC50 is greater than 1000 nM.
Under `O=C(c1ccc(-c2cc(Nc3ccc(N4CCC(O)CC4)cn3)c3c(=O)[nH]ccc3n2)c(F)c1)N1CCC1` [I-126, 2-[4-(azetidine-1-carbonyl)-2-fluoro-phenyl]-4-[[5-(4-hydroxy-1-piperidyl)-2-pyridyl]amino]-6H-1,6-naphthyridin-5-one] stands 100 to 1000 nM.
Under `CC(O)(c1cc(Nc2ccc(N3CCC(O)CC3)cn2)c2c(=O)[nH]ccc2n1)C(F)(F)F` (centres unmarked) [I-77, 4-[[5-(4-hydroxy-1-piperidyl)-2-pyridyl]amino]-2-(2,2,2-trifluoro-1-hydroxy-1-methyl-ethyl)-6H-1,6-naphthyridin-5-one] stands 100 to 1000 nM; under `COc1cc(-c2cc(Nc3ccc(N4CC(F)(F)C4)cn3)c3c(=O)[nH]ccc3n2)c(F)cc1C(=O)N1CCCCC1` [I-174, 4-[[5-(3,3-difluoro-azetidin-1-yl)-2-pyridyl]amino]-2-[2-fluoro-5-methoxy-4-(piperidine-1-carbonyl)phenyl]-6H-1,6-naphthyridin-5-one], greater than 1000 nM.
Under `Cc1ccncc1-c1cc(Nc2ccc(N3CCC(O)CC3)cn2)c2c(=O)[nH]ccc2n1` [I-281, 4-[[5-(4-hydroxy-1-piperidyl)-2-pyridyl]amino]-2-(4-methyl-3-pyridyl)-6H-1,6-naphthyridin-5-one] stands no more than 100 nM; under `CN1CCC(c2cc(Nc3ccc(N4CCC(O)CC4)cn3)c3c(=O)[nH]ccc3n2)CC1` [I-75, 4-[[5-(4-hydroxy-1-piperidyl)-2-pyridyl]amino]-2-(1-methyl-4-piperidyl)-6H-1,6-naphthyridin-5-one], no more than 100 nM.
For `CNC1CCc2cc(F)c(-c3cc(Nc4ccc(N5CCC(O)CC5)cn4)c4c(=O)[nH]ccc4n3)cc21` (centres unmarked) [I-200, 2-[6-fluoro-3-(methyl-amino)indan-5-yl]-4-[[5-(4-hydroxy-1-piperidyl)-2-pyridyl]amino]-6H-1,6-naphthyridin-5-one], the IC50 was no more than 100 nM.
The figure for `O=C(c1ccc(-c2cc(Nc3ccc(N4CCC(O)CC4)cn3)c3c(=O)[nH]ccc3n2)c(F)c1)N1CCCCC1` [I-71, 2-[2-fluoro-4-(piperidine-1-carbonyl)phenyl]-4-[[5-(4-hydroxy-1-piperidyl)-2-pyridyl]amino]-6H-1,6-naphthyridin 5-one] is 100 to 1000 nM; for `COc1cc(OC)cc(-c2cc(Nc3ccc(N4CCC(O)CC4)cn3)c3c(=O)[nH]ccc3n2)c1` [I-100, 2-(3,5-dimethoxyphenyl)-4-[[5-(4-hydroxy-1-piperidyl)-2-pyridyl]amino]-6H-1,6-naphthyridin-5-one] it is no more than 100 nM.
For the molecule `CNC1CCCc2c1ccc(F)c2-c1cc(Nc2ccc(N3CCC(O)CC3)cn2)c2c(=O)[nH]ccc2n1` (centres unmarked) [I-224, 2-[6-fluoro-1-(methyl-amino)tetralin-5-yl]-4-[[5-(4-hydroxy-1-piperidyl)-2-pyridyl]amino]-6H-1,6-naphthyridin-5-one], the IC50 lay within 100 to 1000 nM.
Under `O=C(Nc1ccc(-c2cc(Nc3ccc(N4CC(F)(F)C4)cn3)c3c(=O)[nH]ccc3n2)c(F)c1)C1CCCCC1` [I-201, N-[4-[4-[[5-(3,3-difluoro-azetidin-1-yl)-2-pyridyl]amino]-5-oxo-6H-1,6-naphthyridin-2-yl]-3-fluoro-phenyl] cyclohexane-carboxamide] stands no more than 100 nM; under `O=c1[nH]ccc2nc(N3CCCCC3)cc(Nc3ccc(N4CCC(O)CC4)cn3)c12` [I-83, 4-[[5-(4-hydroxy-1-piperidyl)-2-pyridyl]amino]-2-(1-piperidyl)-6H-1,6-naphthyridin-5-one], 100 to 1000 nM.
Under `N#CC1(c2ccc(F)c(-c3cc(Nc4ccc(N5CCC(O)CC5)cn4)c4c(=O)[nH]ccc4n3)c2)CC1` [I-105, 1-[4-fluoro-3-[4-[[5-(4-hydroxy-1-piperidyl)-2-pyridyl]amino]-5-oxo-6H-1,6-naphthyridin-2-yl]phenyl] cyclo-propane-carbonitrile] stands greater than 1000 nM; under `O=C(c1ccc(-c2cc(Nc3ccc(N4CCC(O)CC4)cn3)c3c(=O)[nH]ccc3n2)c(F)c1)N1CCCC1` [I-115, 2-[2-fluoro-4-(pyrrolidine-1-carbonyl)phenyl]-4-[[5-(4-hydroxy-1-piperidyl)-2-pyridyl]amino]-6H-1,6-naphthyridin-5-one], no more than 100 nM.
The figure for `O=C(C1CC1)N1CCC2(CCN(c3cc(Nc4ccc(N5CCC(O)CC5)cn4)c4c(=O)[nH]ccc4n3)CC2)C1` [I-233, 2-[2-(cyclopropanecarbonyl)-2,8-diazaspiro[4.5]decan-8-yl]-4-[[5-(4-hydroxy-1-piperidyl)-2-pyridyl]amino]-6H-1,6-naphthyridin-5-one] is no more than 100 nM.

(Values after US12252488B2 (Nimbus Saturn, Inc., priority 2021, dated 2025).)
